Converted amounts (≈) assume the structure as drawn. Read-outs that look alike come from different tables or passages of the source.
Assays:
[1] = system: HeLa (Cervical cancer cell line); test: MTT cytotoxicity assay; type: cell-based; details: Homo sapiens, MTT, 24 h continuous exposure, read-out: IC50 HeLa (Cervical cancer cell line)
Protocol: (§1) Two immortalised human cell lines, HeLa and WI38 were used for cytotoxicity screening of the compounds. HeLa is a human cervical cancer cell line and WI38 is a normal healthy cell line. The cell lines were obtained from the American Type Culture Collection. The cell-lines were maintained in monolayer culture in 75 cm2 flasks (TPP, Switzerland) under a humidified 5% CO2 atmosphere at 37° C. The HeLa cell line was maintained in Dulbecco's Modified Eagles Media (DMEM; Invitrogen) supplemented with foetal bovine serum (10% v/v; Invitrogen), L-glutamine (2 mM; Invitrogen), non-essential amino acids (1×; Invitrogen) and Penicillin-Streptomycin (1% v/v, Invitrogen). For WI38, Eagle's Minimum Essential Medium, and Penicillin-Streptomycin (1% v/v, Invitrogen) and foetal bovine serum (10%, nvitrogen) was used. For passaging, cells were washed with phosphate buffered saline [PBS] (GIBCO 14040, Invitrogen, UK), incubated with trypsine (GIBCO 25300, Invitrogen, UK), and re-seeded into fresh medium. For seeding, cells were counted using a Neubauer haemocytometer (Assistant, Germany) by microscopy (Nikon, USA) on a non-adherent suspension of cells that were washed in PBS, trypsinised, centrifuged at 8° C. at 8000 rpm for 5 min and re-suspended in fresh medium.
(§2) The cells were grown in normal cell culture conditions at 37° C. under a 5% CO2 humidified atmosphere using appropriate medium. The cell count was adjusted to 10^5 cells/ml/ and 20,000 cells were added per well. The cells were incubated for 24 hours and 1 μl of the appropriate inhibitor concentrations were to the wells in triplicates. After 24 h of continuous exposure to each compound, the cytotoxicity was determined using the MIT (3-(4,5-Dimethylthiazol-2-yl)-2,5-diphenyltetrazolium bromide) (Lancaster Synthesis Ltd, UK) colorimetric assay. Absorbance was quantified by spectrophotometry at λ=570 nm (Envision Plate Reader, PerkinElmer, USA). IC50 values were calculated by a dose-response analysis using the Prism Graphpad Prism® software. The cytotoxicity results are shown below in Table 12.

WI38 (Healthy cell line) = test: MTT cytotoxicity assay; type: cell-based; details: Homo sapiens, WI-38; MTT; 24 h continuous exposure; highest concentration tested 20 μM; read-out: IC50 WI38 (Healthy cell line)
Protocol: as §1, §2

[2] = system: E. faecalis VRE NCTC 12201; test: General MIC protocol, Gram positive panel; type: cell-based
Protocol: (§3) General Minimum Inhibitory Concentration (MIC) Protocol
(§4) 1. Grow up cultures of bacterial strains to be tested overnight.
(§5) 2. Dilute down overnight cultures to concentration of 1×10^6 bacteria/ml (OD0.01) in Tryptic soy broth (TSB).
(§6) 3. Add 100 μl of TSB media to column 2-column 12 in 96 well plate (keeping column 1 clear).
(§7) 4. Make up compound to a concentration of 64 μg/ml in water (or alternatively to twice the chosen maximum concentration to be tested).
(§8) 5. Add 100 μl of antibiotic solution to the 1st and 2nd columns.
(§9) 6. Using a multichannel pipette take 100 μl from the 2nd column wells and pipette into 3rd column wells and repeat down the 96 well plate (remembering to include controls i.e. uninfected media and media with no antibiotic).
(§10) 7. To each well (except uninfected control row H) add 100 μl of bacterially infected media at a concentration of 1×10^6/ml.
(§11) 8. This dilutes down the concentration of the antibiotic by half (top dose is therefore 32 μg/ml in column 1) and also gives you a starting bacterial concentration of 5×10^5/ml.
(§12) 9. Wrap plate with parafilm to prevent evaporation.
(§13) 10. Leave at desired temperature (37° C. unless specified elsewhere) for 20 hours.
(§14) 11. Next day check plates for growth and measure optical density (i.e. absorbance) at a wavelength of 600 nm (OD600).
(§15) An example of such a plate is shown in FIG. 1 where column A represents wells that receive the top dose 100 μl; column B represents wells that receive the top dose 100 μl+100 μl TSB; and column C represents wells that receive 100 μl TSB. Row H which is marked by a box labelled D represents a blank where the cells receive no bacteria.

[3] = system: E. faecium VRE NCTC 12204; test: General MIC protocol, Gram positive panel; type: cell-based
Protocol: as §3, §4, §5, §6, §7, §8, §9, §10, §11, §12, §13, §14, §15

[4] = system: methicillin sensitive S. aureus ATTC 9144 (NCTC 6571); test: General MIC protocol, Gram positive panel; type: cell-based; details: Staphylococcus aureus, MSSA / NCTC 6571; MSSA 9144
Protocol: as §3, §4, §5, §6, §7, §8, §9, §10, §11, §12, §13, §14, §15

EMRSA-16 = test: General MIC protocol, Gram positive panel; type: cell-based
Protocol: as §3, §4, §5, §6, §7, §8, §9, §10, §11, §12, §13, §14, §15

E. faecalis VSE NCTC 775 = test: General MIC protocol, Gram positive panel; type: cell-based; details: Enterococcus faecalis, NCTC775; VSE 775
Protocol: as §3, §4, §5, §6, §7, §8, §9, §10, §11, §12, §13, §14, §15

EMRSA-15 = test: General MIC protocol, Gram positive panel; type: cell-based
Protocol: as §3, §4, §5, §6, §7, §8, §9, §10, §11, §12, §13, §14, §15

A. baumannii AYE = test: General MIC protocol, Gram negative; type: cell-based; details: Acinetobacter baumannii
Protocol: as §3, §4, §5, §6, §7, §8, §9, §10, §11, §12, §13, §14, §15

K. pneumonia NCTC 13368 = test: General MIC protocol, Gram negative; type: cell-based
Protocol: as §3, §4, §5, §6, §7, §8, §9, §10, §11, §12, §13, §14, §15

P. aeruginosa NCTC 13437 = test: General MIC protocol, Gram negative; type: cell-based; details: Pseudomonas aeruginosa, NCTC13437
Protocol: as §3, §4, §5, §6, §7, §8, §9, §10, §11, §12, §13, §14, §15

K. pneumonia M6 = test: General MIC protocol, Gram negative; type: cell-based; details: Klebsiella pneumoniae; KP-M6
Protocol: as §3, §4, §5, §6, §7, §8, §9, §10, §11, §12, §13, §14, §15

A. baumannii NCTC 17978 = test: General MIC protocol, Gram negative; type: cell-based; details: Acinetobacter baumannii, NCTC17978
Protocol: as §3, §4, §5, §6, §7, §8, §9, §10, §11, §12, §13, §14, §15

P. aeruginosa PA01 = test: General MIC protocol, Gram negative; type: cell-based; details: Pseudomonas aeruginosa
Protocol: as §3, §4, §5, §6, §7, §8, §9, §10, §11, §12, §13, §14, §15

Psueudomonas GH12 = test: General MIC protocol, Gram negative; type: cell-based; details: Pseudomonas
Protocol: as §3, §4, §5, §6, §7, §8, §9, §10, §11, §12, §13, §14, §15
The activity of the compound designated PP-A148 was tested against an extended panel of Klebsiella and Pseudomonas Gram-negative bacterial strains that have proven drug resistant difficult to treat. […] The minimum inhibitory concentration (MIC) was measured using the general MIC protocol given above.

Klebsiella KP 342 = test: General MIC protocol, Gram negative; type: cell-based; details: KP342
Protocol: as §3, §4, §5, §6, §7, §8, §9, §10, §11, §12, §13, §14, §15
The minimum inhibitory concentration (MIC) was measured using the general MIC protocol given above.

K. pneumonia NCTC 13439 = test: General MIC protocol, Gram negative; type: cell-based; details: K. pneumonia NCTC 13439
Protocol: as §3, §4, §5, §6, §7, §8, §9, §10, §11, §12, §13, §14, §15

K. pneumonia NCTC 13443 = test: General MIC protocol, Gram negative; type: cell-based; details: K. pneumonia NCTC 13443
Protocol: as §3, §4, §5, §6, §7, §8, §9, §10, §11, §12, §13, §14, §15

K. pneumonia NCTC 13438 = test: General MIC protocol, Gram negative; type: cell-based; details: K. pneumonia NCTC 13438
Protocol: as §3, §4, §5, §6, §7, §8, §9, §10, §11, §12, §13, §14, §15

K. pneumonia KP16 = test: General MIC protocol, Gram negative; type: cell-based; details: K. pneumonia KP16
Protocol: as §3, §4, §5, §6, §7, §8, §9, §10, §11, §12, §13, §14, §15

K. pneumonia NCTC 51851 = test: General MIC protocol, Gram negative; type: cell-based; details: K. pneumonia NCTC 51851
Protocol: as §3, §4, §5, §6, §7, §8, §9, §10, §11, §12, §13, §14, §15

K. pneumonia MGH 78578 = test: General MIC protocol, Gram negative; type: cell-based; details: K. pneumonia MGH 78578
Protocol: as §3, §4, §5, §6, §7, §8, §9, §10, §11, §12, §13, §14, §15

[5] = system: resistant mutants of KP 13368; test: MIC following resistance development; type: cell-based, Klebsiella; details: KP 13368; following resistance development
Protocol: as §3, §4, §5, §6, §7, §8, §9, §10, §11, §12, §13, §14, §15
(§16) The MIC of PP-A418 and colistin against the strains used in the time kill analysis of Example 31 following resistance development were measured. The MIC was measured using the general MIC protocol given above. The results are given in Table 14 below where the MIC values of resistant mutants are shown in the brackets.

[6] = system: resistant mutants of KP 13438; test: MIC following resistance development; type: cell-based, Klebsiella; details: KP 13438; following resistance development
Protocol: as §3, §4, §5, §6, §7, §8, §9, §10, §11, §12, §13, §14, §15, §16

[7] = system: resistant mutants of KP 16; test: MIC following resistance development; type: cell-based, Klebsiella; details: KP 16; following resistance development
Protocol: as §3, §4, §5, §6, §7, §8, §9, §10, §11, §12, §13, §14, §15, §16

With `COc1cc2c(cc1OCCCC(=O)Nc1cc(C(=O)Nc3ccc4sc(C(=O)N5CCSCC5)cc4c3)n(C)c1)N=C[C@@H]1CCCN1C2=O` [PP-B15, (S)-4-(4-((7-methoxy-5-oxo-2,3,5,11a-tetrahydro-1H-benzo-[e]pyrrolo[1,2-a][1,4]diazepin-8-yl)oxy)butanamido)-1-methyl-N-(2-(thiomorpholine-4-carbonyl)benzo[b]thiophen-5-yl)-1H-pyrrole-2-carboxamide] the IC50 [1] was > 20 µM, the IC50 (WI38 (Healthy cell line)) was > 20 µM and the MIC [2] was < 0.125 µg/mL. For the same molecule, the MIC [3] was < 0.125 µg/mL, the MIC [4] was < 0.125 µg/mL and the MIC (EMRSA-16) was < 0.125 µg/mL. The MIC (E. faecalis VSE NCTC 775) was < 0.125 µg/mL, the MIC (EMRSA-15) was < 0.125 µg/mL and the MIC (A. baumannii AYE) was 2 µg/mL (≈ 2.8 µM). The MIC (K. pneumonia NCTC 13368; Klebsiella pneumoniae, NCTC13368) was 2 µg/mL (≈ 2.8 µM), the MIC (P. aeruginosa NCTC 13437) was 32 µg/mL (≈ 44.8 µM) and the MIC (K. pneumonia M6) was > 128 µg/mL. The MIC (A. baumannii NCTC 17978) was 2 µg/mL (≈ 2.8 µM) and the MIC (P. aeruginosa PA01; PA01, PA01) was 64 µg/mL (≈ 89.5 µM).
With `C[C@H]1COc2c(N3CCN(C)CC3)c(F)cc3c(=O)c(C(=O)O)cn1c23` [Levofloxacin, levofloxacin] the MIC (Psueudomonas GH12) was > 16 µg/mL, the MIC (Klebsiella KP 342; Klebsiella KP 342, read-out: MIC) was 0.5 to 1 µg/mL (≈ 1.38 to 2.77 µM) and the MIC (K. pneumonia NCTC 13439; Klebsiella pneumoniae, NCTC13439, read-out: MIC) was 16 µg/mL (≈ 44.3 µM). The MIC (K. pneumonia NCTC 13443; Klebsiella pneumoniae, NCTC13443, read-out: MIC) was > 16 µg/mL, the MIC (K. pneumonia NCTC 13438; Klebsiella pneumoniae, NCTC13438, read-out: MIC) was > 16 µg/mL and the MIC (K. pneumonia KP16; Klebsiella pneumoniae, read-out: MIC) was 8 to 16 µg/mL (≈ 22.1 to 44.3 µM). For the same molecule, the MIC (K. pneumonia NCTC 51851; Klebsiella pneumoniae, NCTC51851, read-out: MIC) was > 16 µg/mL, the MIC (P. aeruginosa PA01; PA01, read-out: MIC) was 4 µg/mL (≈ 11.1 µM) and the MIC (K. pneumonia MGH 78578; Klebsiella pneumoniae, MGH78578, read-out: MIC) was 1 µg/mL (≈ 2.77 µM).
For colistin [reference compound], the “MIC of resistant mutants (in brackets)” value [5] was “(32-64) μg/ml”, the “MIC of resistant mutants (in brackets)” value [6] was “(64-128) μg/ml” and the “MIC of resistant mutants (in brackets)” value [7] was “(64-128) μg/ml”. The MIC (Klebsiella KP 342; Klebsiella) was 4 µg/mL, the MIC (K. pneumonia NCTC 13439) was 4 µg/mL and the MIC (K. pneumonia NCTC 13443) was 2 µg/mL. The MIC (K. pneumonia NCTC 13438) was 2 µg/mL, the MIC (K. pneumonia NCTC 13368; KP NCTC 13368) was 4 µg/mL and the MIC (K. pneumonia KP16) was 2 to 4 µg/mL. The MIC (K. pneumonia KP16; listed as Collistin) was 1 µg/mL, the MIC (K. pneumonia NCTC 51851) was 64 µg/mL and the MIC (K. pneumonia MGH 78578) was 8 µg/mL.

— patent publication US10640507B2, “PBD antibacterial agents” (KING'S COLLEGE LONDON, priority 2015, dated 2020)
